This note sets out measurements from patent US9127040B2, “Regulation of sodium channels by PLUNC proteins” (The University of North Carolina at Chapel Hill, priority 2011, dated 2015).

Ends that are not written are not given here.

For experiment [1], the target named is T1, γENaC (Homo sapiens, UniProt P51170).
T1 construct: expressed in transfected cells; host or cells: HEK293T cells (lysate)
Description: Biotinylated peptide pull-down of ENaC subunits from HEK293T cells. The class given is binding. The note with it: subunits individually expressed. How it is done:
HEK293T cells were transfected with double-tagged human ENaC subunits with HA and V5 epitopes at the N- and C-termini, respectively, in combination with wild-type untagged subunit cDNA. When all three ENaC subunits were expressed, 0.5 μg of each subunit were transfected per well. When expressed individually, 0.75 μg of the subunit were transfected per well. The transfected cells were lysed 24 h later using NP-40 buffer with 1× complete EDTA-free protease inhibitor (Roche, Basel, Switzerland). The lysate was centrifuged at 16,300×g for 15 minutes at 4° C. and the supernatant collected. Protein concentration was determined using the BCA assay and 500 μg of protein plus 0.25 mg peptide and 100 μL of neutravidin were added to a spin column and rotated end-over-end at 4° C. for 24 h (all ThermoFisher Scientific, Rockford, Ill., USA). Flow-through was collected by centrifugation at 1000×g for 30 s. […] The membrane was probed using 1:1000 anti-V5 antibody (Invitrogen, Carlsbad, Calif., USA) overnight at 4° C. in 3% fish gelatin in TBS-T. The blot was then incubated for 1 h at room temperature with an ECL sheep anti-mouse IgG secondary antibody and detected by ECL reagent (ThermoFisher Scientific, Waltham, Mass., USA) or by incubation with a goat anti-mouse IRDye secondary antibody and analyzed by an Odyssey infrared imaging system (LI-COR Biosciences, Lincoln, Nebr., USA).

For experiment [2], the target named is T2, βENaC-eGFP (Homo sapiens, UniProt P51168).
T2 construct: expressed in transfected cells; host or cells: HEK cells
T2 sequence (P51168 whole entry, one chain of several): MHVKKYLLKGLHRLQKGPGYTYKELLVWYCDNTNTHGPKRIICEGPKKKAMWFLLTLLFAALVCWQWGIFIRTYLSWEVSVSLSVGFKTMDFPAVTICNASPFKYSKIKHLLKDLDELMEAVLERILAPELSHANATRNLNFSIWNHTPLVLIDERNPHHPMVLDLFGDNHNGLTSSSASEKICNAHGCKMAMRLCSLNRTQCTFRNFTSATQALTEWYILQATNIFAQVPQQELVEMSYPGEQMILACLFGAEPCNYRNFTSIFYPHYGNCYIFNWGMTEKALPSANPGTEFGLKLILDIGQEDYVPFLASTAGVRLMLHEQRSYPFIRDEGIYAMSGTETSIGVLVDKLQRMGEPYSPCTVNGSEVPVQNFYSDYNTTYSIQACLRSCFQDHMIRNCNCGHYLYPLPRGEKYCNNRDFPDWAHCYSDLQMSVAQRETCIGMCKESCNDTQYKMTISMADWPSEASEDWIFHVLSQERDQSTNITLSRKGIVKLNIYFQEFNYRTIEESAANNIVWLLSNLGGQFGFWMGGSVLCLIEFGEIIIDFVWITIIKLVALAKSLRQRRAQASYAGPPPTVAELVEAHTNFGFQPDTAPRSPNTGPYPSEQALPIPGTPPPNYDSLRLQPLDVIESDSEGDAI
T2 sequence (P51170 whole entry partner, one chain of several): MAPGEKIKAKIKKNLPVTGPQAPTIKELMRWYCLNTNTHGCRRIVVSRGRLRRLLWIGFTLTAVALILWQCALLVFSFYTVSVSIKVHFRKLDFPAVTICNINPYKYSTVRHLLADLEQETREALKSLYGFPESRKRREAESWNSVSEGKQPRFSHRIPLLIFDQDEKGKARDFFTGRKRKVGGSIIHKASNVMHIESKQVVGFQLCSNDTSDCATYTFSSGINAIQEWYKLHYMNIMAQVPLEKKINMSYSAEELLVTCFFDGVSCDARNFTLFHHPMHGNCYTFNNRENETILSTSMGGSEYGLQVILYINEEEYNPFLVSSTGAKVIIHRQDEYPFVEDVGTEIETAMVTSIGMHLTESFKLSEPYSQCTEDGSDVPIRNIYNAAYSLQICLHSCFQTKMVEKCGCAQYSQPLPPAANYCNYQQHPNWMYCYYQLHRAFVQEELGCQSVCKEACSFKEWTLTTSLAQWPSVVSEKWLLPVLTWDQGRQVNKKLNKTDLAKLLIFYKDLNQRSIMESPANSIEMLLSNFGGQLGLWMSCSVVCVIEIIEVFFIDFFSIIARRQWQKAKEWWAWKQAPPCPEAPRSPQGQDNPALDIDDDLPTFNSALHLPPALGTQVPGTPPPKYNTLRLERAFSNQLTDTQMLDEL
Description: Confocal imaging of βENaC-eGFP internalization in HEK cells. The class given is cell-based. The note with it: 1 h after 100 μM S18. From the text:
Ai, cartoon of αENaC-eGFP and βENaC-mCherry under basal conditions (γENaC not shown). Aii We hypothesize that S18 binding to the extracellular loop of βENaC (1) induces a conformational change in ENaC which is reflected as altered intracellular FRET (2). This change may facilitate NEDD4-2-induced ubiquitination (3), leading to internalization of αβγENaC (4). […] In contrast, exposure to aprotinin had no effect. All n=8-10. C, Typical confocal images of HEK cells expressing αγENaC and βENaC-eGFP before and 1 h after 100 μM S18. Cell outlines are traced in white.
Since ENaC is regulated by NEDD4-2 binding to its C-termini, which leads to ubiquitination of its N-termini and internalization, we propose that S18 causes a conformational change in ENaC, leading to increased ubiquitination followed by internalization (FIG. 21A). As a first step towards understanding the mechanism of action of SPLUNC1, we performed FRET on fluorescently tagged ENaCs. […] Furthermore, βENaC-eGFP internalized upon S18 binding (FIG. 21C), consistent with our surface biotinylation data from oocytes.

Experiment [3] concerns the target T3, αENaC (Homo sapiens, UniProt P37088).
T3 sequence (P37088 1-669): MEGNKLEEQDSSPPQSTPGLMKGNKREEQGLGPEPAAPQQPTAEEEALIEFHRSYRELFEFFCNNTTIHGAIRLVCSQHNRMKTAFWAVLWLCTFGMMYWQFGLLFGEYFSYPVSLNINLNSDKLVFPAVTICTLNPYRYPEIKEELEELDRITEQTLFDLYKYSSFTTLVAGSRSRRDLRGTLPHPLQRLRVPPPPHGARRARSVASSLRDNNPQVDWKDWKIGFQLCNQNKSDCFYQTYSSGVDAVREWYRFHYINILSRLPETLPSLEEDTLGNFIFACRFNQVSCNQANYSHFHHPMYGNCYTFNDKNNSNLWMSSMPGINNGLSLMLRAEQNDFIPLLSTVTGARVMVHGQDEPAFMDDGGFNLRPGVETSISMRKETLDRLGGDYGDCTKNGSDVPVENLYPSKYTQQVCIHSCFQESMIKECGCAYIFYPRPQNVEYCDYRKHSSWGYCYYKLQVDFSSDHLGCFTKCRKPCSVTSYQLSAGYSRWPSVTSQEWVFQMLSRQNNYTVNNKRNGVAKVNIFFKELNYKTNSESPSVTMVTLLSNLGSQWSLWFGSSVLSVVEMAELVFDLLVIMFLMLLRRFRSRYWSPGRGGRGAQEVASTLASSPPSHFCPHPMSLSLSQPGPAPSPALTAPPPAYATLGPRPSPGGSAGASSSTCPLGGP
The experiment can be described thus: Texas red-SPLUNC1 binding assay on JME cells expressing yfp-αENaC. The arrangement: expressed in transfected cells; host or cells: JME nasal epithelial cells that no longer express ENaC, lentivirus pQCXIN. The note with it: Texas red-rSPLUNC1, 30 min, polarized JME cells with yfp-αENaC; Hill fit. How it is done:
JME cells were incubated with varying concentrations of Texas red-labeled SPLUNC1 for 30 min followed by a 5× wash with PBS. After this time images were acquired with a Nikon Ti-S inverted microscope and were quantified to obtain specific and non-specific binding using Image J. Data were then fitted with a Hill Plot to obtain the Kd.
JME nasal epithelial cells express functional ENaCs (Tong et al., Am. J. Physiol. Lung Cell. Mol. Physiol. 287:L928 (2004)). However, this attribute is lost after several passages. Thus, passaged JME cells that no longer expressed ENaC were stably infected with a lentivirus containing yfp-αENaC or an empty vector as a control and the presence or absence of αENaC was confirmed using an antibody that was constructed “in-house” that was directed against αENaC (FIG. 8).
Recombinant SPLUNC1 was labeled with Texas red according to the manufacturer's instructions (Pierce) and was freshly labeled on the day of each binding experiment. […] After this time yfp (514 nm excitation) and Texas red fluorescence (590 nm excitation) were imaged under a 60× water objective on a Nikon Ti-S inverted microscope equipped with an Orca CCD camera (Hamamatsu) switchable filter wheels (Ludl). Background fluorescence was subtracted from all images and the mean thresholded intensity was quantified to obtain specific and non-specific binding using Image J.

T1 sequence (P51170 whole entry): as the sequence (P51170 whole entry partner, one chain of several) above

On to GGLPVPLDQTLPLNVNPA [S18], for which, in experiment [1], the “binding to γENaC (pull-down)” value is “without any detectable binding”. For the same molecule, in experiment [2], the βENaC-eGFP internalization result is “internalized”.

B1: SPLUNC1: human SPLUNC1 (SEQ ID NO:1), 256 amino acid secreted PLUNC family protein; rSPLUNC1 is the purified V5/6His-tagged recombinant form (protein, listed as Homo sapiens)
chain: MFQTGGLIVFYGLLAQTMAQFGGLPVPLDQTLPLNVNPALPLSPTGLAGSLTNALSNGLLSGGLLGILENLPLLDILKPGGGTSGGLLGGLLGKVTSVIPGLNNIIDIKVTDPQLLELGLVQSPDGHRLYVTIPLGIKLQVNTPLVGASLLRLAVKLDITAEILAVRDKQERIHLVLGDCTHSPGSLQISLLDGLGPLPIQGLLDSLTGILNKVLPELVQGNVCPLVNEVLRGLDITLVHDIVNMLIHGLQFVIKV
modifications: V5/6His tag in recombinant form
notes: rSPLUNC1 is the purified V5/6His-tagged recombinant form
For orientation: Kd means the equilibrium constant for the complex coming apart. Read a low Kd as a tighter complex. In experiment [3], B1 returned a dissociation constant (Kd) of 0.055 µg/mL.
